Active and inactive are the calls of the source. The calls were made as follows: active = viability on the fitted dose curve at most 10% of control; inactive = the rest.
Tested on: KRAS-mutant PDC tumor spheroid with HUVEC/MSC, viability
Assay: Anticancer human tumor 327498-153-R-J2-PDC patient-derived uterine carcinosarcoma cell line growth inhibition [KRAS2]
Conditions: for IC50: curve of first compound; for viability, T/C: stronger effect = lower value
Summary of the method: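 Combination screen of spheroid viability in tumor-cell co-cultures with endothelial (HUVEC) and mesenchymal stem cell stroma. Each agent was tested in half-log dilutions, topping at clinical Cmax or at 10 microM without a known Cmax.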

[1] = second compound 0.1 µM, first compound 0.01 µM
[2] = second compound 0.1 µM, first compound 0.0316 µM
[3] = second compound 0.1 µM, first compound 0.1 µM
[4] = second compound 0.1 µM, first compound 0.316 µM
[5] = second compound 0.1 µM, first compound 1 µM
[6] = second compound 0.1 µM, first compound 3.16 µM
[7] = second compound 0.316 µM, first compound 0.01 µM
[8] = second compound 0.316 µM, first compound 0.0316 µM
[9] = second compound 0.316 µM, first compound 0.1 µM
[10] = second compound 0.316 µM, first compound 0.316 µM
[11] = second compound 0.316 µM, first compound 1 µM
[12] = second compound 0.316 µM, first compound 3.16 µM
[13] = second compound 1 µM, first compound 0.01 µM
[14] = second compound 1 µM, first compound 0.0316 µM
[15] = second compound 1 µM, first compound 0.1 µM
[16] = second compound 1 µM, first compound 0.316 µM
[17] = second compound 1 µM, first compound 1 µM
[18] = second compound 1 µM, first compound 3.16 µM
[19] = second compound 3.16 µM, first compound 0.01 µM
[20] = second compound 3.16 µM, first compound 0.0316 µM
[21] = second compound 3.16 µM, first compound 0.1 µM
[22] = second compound 3.16 µM, first compound 0.316 µM
[23] = second compound 3.16 µM, first compound 1 µM
[24] = second compound 3.16 µM, first compound 3.16 µM
[25] = second compound 10 µM, first compound 0.01 µM
[26] = second compound 10 µM, first compound 0.0316 µM
[27] = second compound 10 µM, first compound 0.1 µM
[28] = second compound 10 µM, first compound 0.316 µM
[29] = second compound 10 µM, first compound 1 µM
[30] = second compound 10 µM, first compound 3.16 µM
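For IC50 in this document: spheroids exposed to agents for seven days before reading.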
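For viability, T/C in this document: spheroids exposed to agents for seven days before reading; 100% = DMSO vehicle wells so lower means fewer viable cells.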

Row | SMILES | IC50 (second compound 0.1 µM) [nM] | IC50 (second compound 0.316 µM) [nM] | IC50 (second compound 1 µM) [nM] | IC50 (second compound 3.16 µM) [nM] | IC50 (second compound 10 µM) [nM] | viability, T/C [1] [%] | viability, T/C [2] [%] | viability, T/C [3] [%] | viability, T/C [4] [%] | viability, T/C [5] [%] | viability, T/C [6] [%] | viability, T/C [7] [%] | viability, T/C [8] [%] | viability, T/C [9] [%] | viability, T/C [14] [%] | viability, T/C [15] [%] | viability, T/C [20] [%] | viability, T/C [21] [%] | viability, T/C [26] [%] | viability, T/C [27] [%] | other results
1 | CC(=O)OC12COC1CC(O)C1(C)C(=O)C(O)C3=C(C)C(OC(=O)C(O)C(NC(=O)OC(C)(C)C)c4ccccc4)CC(O)(C(OC(=O)c4ccccc4)C21)C3(C)C (stereo not given) + CC1OCC2(CCN(c3cnc(Sc4ccnc(N)c4Cl)c(N)n3)CC2)C1N | < 10 | < 10 | < 10 | < 10 | < 10 | 7.15 | 5.15 | 5.38 | 6.78 | 9.97 | 11.7 | 7.22 | 4.87 | 5.16 | 6.9 | 11 | 6.18 | 5.94 | 6.42 | 9.06 | viability, T/C [10]: 6.51%; viability, T/C [11]: 8.59%; viability, T/C [12]: 12.2%; viability, T/C [13]: 8.68%; viability, T/C [16]: 6.11%; viability, T/C [17]: 8.45%; viability, T/C [18]: 11.8%; viability, T/C [19]: 6.83%; viability, T/C [22]: 6.88%; viability, T/C [23]: 9.05%; viability, T/C [24]: 10.5%; viability, T/C [25]: 12.6%; viability, T/C [28]: 5.82%; viability, T/C [29]: 10.8%; viability, T/C [30]: 10.4%
2 | CN(C)C/C=C/C(=O)Nc1cc2c(Nc3ccc(F)c(Cl)c3)ncnc2cc1O[C@H]1CCOC1 + CC1OCC2(CCN(c3cnc(Sc4ccnc(N)c4Cl)c(N)n3)CC2)C1N | > 100 | > 100 | > 100 | < 0.316 | 0.428 | 71 | 69.3 | 56.4 |  |  |  | 53.1 | 51.2 | 53 | 99 | 91.7 | 32.7 | 31.9 | 37.3 | 33.5 | viability, T/C (second compound 0.1 µM, first compound 0.000316 µM): 75.6%; viability, T/C (second compound 0.1 µM, first compound 0.001 µM): 82%; viability, T/C (second compound 0.1 µM, first compound 0.00316 µM): 71%; viability, T/C (second compound 0.316 µM, first compound 0.000316 µM): 62.8%; viability, T/C (second compound 0.316 µM, first compound 0.001 µM): 60.4%; viability, T/C (second compound 0.316 µM, first compound 0.00316 µM): 53.5%; viability, T/C (second compound 1 µM, first compound 0.000316 µM): 106%; viability, T/C (second compound 1 µM, first compound 0.001 µM): 109%; viability, T/C (second compound 1 µM, first compound 0.00316 µM): 103%; viability, T/C [13]: 104%; viability, T/C (second compound 3.16 µM, first compound 0.000316 µM): 44%; viability, T/C (second compound 3.16 µM, first compound 0.001 µM): 42.1%; viability, T/C (second compound 3.16 µM, first compound 0.00316 µM): 37%; viability, T/C [19]: 40.7%; outcome (second compound 10 µM, first compound 0.000316 µM): inactive; outcome (second compound 10 µM, first compound 0.001 µM): inactive; viability, T/C (second compound 10 µM, first compound 0.00316 µM): 44%; outcome [25]: inactive
3 | O=C(c1cc(Cc2n[nH]c(=O)c3ccccc23)ccc1F)N1CCN(C(=O)C2CC2)CC1 + CC1OCC2(CCN(c3cnc(Sc4ccnc(N)c4Cl)c(N)n3)CC2)C1N | 1660 | 1080 | 242 | < 31.6 | < 31.6 |  | 81.3 | 83.8 | 75 | 62.6 | 34.8 |  | 70.4 | 68.6 | 104 | 60.7 | 40.5 | 37.6 | 36.7 | 31.8 | viability, T/C (second compound 0.1 µM, first compound 10 µM): 19.4%; viability, T/C [10]: 62.6%; viability, T/C [11]: 52.2%; viability, T/C [12]: 31.7%; viability, T/C (second compound 0.316 µM, first compound 10 µM): 17.5%; viability, T/C [16]: 44.2%; viability, T/C [17]: 40.9%; viability, T/C [18]: 21.9%; viability, T/C (second compound 1 µM, first compound 10 µM): 14.2%; viability, T/C [22]: 38.1%; viability, T/C [23]: 28.7%; viability, T/C [24]: 17.9%; viability, T/C (second compound 3.16 µM, first compound 10 µM): 13.8%; viability, T/C [28]: 27.1%; viability, T/C [29]: 25.3%; viability, T/C [30]: 15.9%; viability, T/C (second compound 10 µM, first compound 10 µM): 11.4%

Source: PubChem BioAssay AID1963867 (Molecular Pharmacology Branch, DTP, NCI, 2024)
